# Source: US20210115087A1, “CYCLIC PEPTIDE INHIBITORS OF HEDGEHOG PROTEINS” (University of Rochester, priority 2016, published 2021)
# pIC50: −log10 of the molar value. *1 amine or outer side, *2 acyl side, *3 side chain or, on linkers, in order; H or OH if unused. Where a SMILES comes first, the peptide text is derived from it. Bridges are numbered along the chain shown (N, C = ends). CH2CH2 = C(C[*:2])[*:1]
# Assays:
# [1] = tested on: Shh-mediated Hedgehog pathway signaling in NIH3T3 cells; test: Gli-reporter dual luciferase assay in Shh-N-stimulated NIH-3T3 cells; format: cell-based, mouse; conditions: 4 nM Shh-N, 24 hours; read-out: half-maximal inhibitory concentration (IC50), suppression of luminescence signal
# From the text: The ability of the compounds provided herein to inhibit ligand-induced activation of the Hedgehog pathway in a cell can be assessed by means of a cell based assay. In an exemplary procedure, a suitable reporter plasmid is introduced in a Hedgehog responsive mammalian cell. Typically, the reporter plasmid contains a reporter gene encoding (e.g., a gene encoding for firefly luciferase) under a Gli-controlled promoter, thereby providing a reporter gene that is responsive to the activity of the Gli transcription factors. […] The reporter cells are incubated with the Hedgehog protein in the presence and in the absence of the cyclic peptide. The extent of Hedgehog pathway suppression can be determined based on relative activity of the luciferase reporter enzyme, which in turn can be determined by measuring the luminescence signal after addition of a luminogenic substrate of the luciferase enzyme.
# To this end, we utilized a cell-based luciferase reporter assay, (Chen, Taipale et al. 2002) in which mouse embryo fibroblasts (NIH3T3) are transfected with vectors encoding for a Firefly luciferase (FF) gene under a Gli-controlled promoter and a Renilla luciferase (Ren) gene under a constitutive promoter. Hedgehog pathway suppression is measured based on the decrease in Firefly/Renilla luminescence ratio in the presence of the inhibitor. […] (Chen, Taipale et al. 2002)
# Gli-reporter Assay. NIH-3T3 cells were passaged twice and then plated in 24-well culture dishes at 5×10^5 cells/well in DMEM containing 10% FBS and 1% penicillin/streptomycin. After 24 hours, the cells were transfected (TransIT-2020) with a mixture of a firefly luciferase reporter construct under the control of a Gli1 inducible promoter and a Renilla luciferase reporter construct under a constitutive promoter (40:1) (Cignal GLI Reporter Luciferase Kit, Qiagen). Cells were allowed to reach confluency, at which point the media was changed to Opti-MEM containing 1% FBS and added with 4 nM Shh-N(R&D Systems, Minneapolis, Minn.) in sterile PBS buffer. Synthetic HL2-lin and HL2-m5 were added at the same time at varying concentration (0.01-30 uM), and control cells were prepared by adding vehicle only (1% DMSO). Purmorphamine-treated cells were prepared by adding 5 μM purmorphamine to wells containing 10 μM HL2-m5. After growth for 24 hours at 37° C. in a humidified chamber, the cells were harvested and analyzed for Firefly and Renilla luciferase activity using a Tecan Spark-20 plate reader and a DLR kit (Promega) according to the manufacturer's instructions. Luminescence values were normalized to those of the Shh pathway activated control cells. Mean values and standard deviations were calculated from experiments performed at least in duplicate.
# [2] = tested on: Hedgehog pathway target genes Gli, Gi2 and Ptch1; test: Gene transcription analyses by real-time PCR in Shh-N-stimulated NIH-3T3 cells; format: cell-based, mouse; conditions: HL2-m5 at 10 μM
# Procedure: The ability of the compounds to suppress a transcriptional response associated with activation of the Hedgehog pathway can be assessed by incubating a Hedgehog responsive mammalian cell with the Hedgehog ligand in the presence and in the absence of the cyclic peptide inhibitor. The messenger RNA (mRNA) is extracted and a DNA the mRNA (cDNA) is produced via reverse transcription. The transcriptional level of canonical Hedgehog target genes such as Gli1 and Ptch1 is then determined via real-time PCR and/or via PCR followed by DNA gel electrophoresis. From the resulting dose-response curves, the activity of the cyclic peptide toward suppressing Hedgehog induced transcriptional activity can be established and quantitatively measured by means of IC50 values.
# To further validate HL2-m5 as a Hedgehog pathway antagonist, the effect of this compound on the transcriptional activity of two canonical target genes of the pathway, Gi and Ptch1 (FIG. 1) was examined via real-time PCR. […]
# Gene transcription analyses. […] The relative amounts of Gi, Gi2, and Ptch1 mRNA transcripts were determined by real-time PCR (Bio-Rad CFX thermocycler) using the primers listed in Table S1 and SYBR green TAQ reagent (Bio-Rad) according to the manufacture's protocol. […] Mean values and standard deviations were calculated from measurements performed in quadruplicate.
# NIH-3T3 cells = test: Cell morphology, growth behavior and titer in the presence of the peptide; format: cell-based, mouse; conditions: highest concentration range applied
# [3] = tested on: GST-Shh, GST-Ihh, and GST-Dhh; test: Hedgehog analog selectivity: relative binding at fixed peptide concentration; design: species or system human; conditions: peptide at fixed concentration of 0.5-1 μM, normalized to highest response
# Procedure: FIG. 14. Hh analog selectivity for linear HHIP L2-derived peptide (HL2-pep) and representative cyclic peptide inhibitors. The data relative to the peptides were derived from direct binding experiments with immobilized Hedgehog proteins (i.e., GST-Shh, GST-Ihh, and GST-Dhh), biotinylated peptides (i.e., Biot-HL2-pep, Biot-HL2-m1, Biot-HL2-m2, Biot-HL2-m3, Biot-HL2-m4, Biot-HL2-m4), and HRP-conjugated streptavidin. The data relative to robotnikinin were derived from competition experiments ([…]+400 nM HL2-m5). For each compound, the response values were normalized to the highest binding response measured across the three Hedgehog analogs.
# Hedgehog analog selectivity. KD values for FLAG-HL2-m5 binding to Ihh and Dhh were determined using the colorimetric immunoassay described earlier but using GST-Ihh and GST-Dhh-coated plates, respectively. The peptide relative binding affinity for the three isoforms of Hedgehog was determined using the same assay and peptide solutions at a fixed concentration of 0.5-1 μM. In this case, binding responses were subtracted against the blank (no peptide sample) and normalized to the highest value measured across the three Hh isoforms. Mean values and standard deviations were calculated from experiments performed at least in triplicate.
# GST-Shh = target: T1, GST-Shh (Homo sapiens, UniProt Q15465); test: Competition assay: inhibition of FLAG-HL2-m5 binding to GST-Shh; conditions: 10 μM robotnikinin and 400 nM FLAG-HL2-m5; read-out: % inhibition of FLAG-HL2-m5 binding in the presence of GST-Shh
# T1 construct: poly-histidine (N); made in house; host or cells: E. coli BL21(DE3), vector pET42b
# T1 sequence (Q15465 24-462): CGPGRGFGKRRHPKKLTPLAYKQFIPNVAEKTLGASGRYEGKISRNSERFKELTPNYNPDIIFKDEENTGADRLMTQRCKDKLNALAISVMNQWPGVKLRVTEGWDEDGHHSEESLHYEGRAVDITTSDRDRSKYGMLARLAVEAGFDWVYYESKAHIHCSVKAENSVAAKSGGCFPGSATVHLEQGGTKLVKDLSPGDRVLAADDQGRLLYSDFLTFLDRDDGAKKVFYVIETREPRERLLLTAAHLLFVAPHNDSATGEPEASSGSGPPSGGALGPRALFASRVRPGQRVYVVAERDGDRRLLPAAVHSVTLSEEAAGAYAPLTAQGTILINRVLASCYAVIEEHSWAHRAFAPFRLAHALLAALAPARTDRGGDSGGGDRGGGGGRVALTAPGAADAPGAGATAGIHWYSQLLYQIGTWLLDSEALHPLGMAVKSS
# Procedure: (§1) The immunoassay described above can be adapted to serve as a competition assay. In this case, a fixed amount of the labeled peptide is incubated with the immobilized Hedgehog protein in the presence of a test compound (e.g., another cyclic peptide or a small-molecule compound). The test molecule competes with the cyclic peptide for binding to the immobilized Hedgehog protein. The amount of bound peptide is quantified using the colorimetric assay described above and the extent of inhibition in the presence of the test compound is compared to that in the absence of it. From the resulting dose-response curves, a IC50 value for the test compound can be obtained. Using this assay and the cyclic compounds provided herein, the Hedgehog inhibitory activity of a test molecule can be evaluated. […]
# (§2) While Shh is the most abundant isoform among Hedgehog proteins, paracrine/autocrine Hedgehog signaling in normal and cancer cells is also mediated by the Indian (Ihh) and Desert (Dhh) isoforms. […] Since the Hh isoform selectivity of robotnikinin had not previously investigated, this property was examined by means of a competition assay, whereby inhibition of FLAG-HL2-m5 binding to plate-immobilized GST-Shh, GST-Ihh, or GST-Dhh is measured via the HRP-conjugated anti-FLAG antibody.
# (§3) Competition assay. […] Mean values and standard deviations were calculated from experiments performed in triplicate.
# GST-Ihh = target: T2, GST-Ihh (Homo sapiens, UniProt Q14623); test: Competition assay: inhibition of FLAG-HL2-m5 binding to GST-Ihh; conditions: 10 μM robotnikinin and 400 nM FLAG-HL2-m5
# T2 construct: poly-histidine (N); made in house; host or cells: E. coli BL21(DE3), vector pET42b
# T2 sequence (Q14623 28-411): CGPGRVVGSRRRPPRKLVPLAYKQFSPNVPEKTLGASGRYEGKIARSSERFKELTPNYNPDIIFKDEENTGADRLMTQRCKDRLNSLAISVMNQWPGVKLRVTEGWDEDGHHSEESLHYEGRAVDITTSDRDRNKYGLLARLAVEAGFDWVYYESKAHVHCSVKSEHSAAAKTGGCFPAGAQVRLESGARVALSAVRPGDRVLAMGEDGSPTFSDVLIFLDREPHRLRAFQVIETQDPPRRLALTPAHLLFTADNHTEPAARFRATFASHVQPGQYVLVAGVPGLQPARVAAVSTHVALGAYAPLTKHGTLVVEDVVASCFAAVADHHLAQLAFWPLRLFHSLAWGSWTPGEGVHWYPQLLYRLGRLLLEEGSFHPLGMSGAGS
# Procedure: as §1, §2, §3
# GST-Dhh = target: T3, GST-Dhh (Homo sapiens, UniProt O43323); test: Competition assay: inhibition of FLAG-HL2-m5 binding to GST-Dhh; conditions: 10 μM robotnikinin and 400 nM FLAG-HL2-m5
# T3 construct: poly-histidine (N); made in house; host or cells: E. coli BL21(DE3), vector pET42b
# Procedure: as §1, §2, §3
# [4] = tested on: Hedgehog pathway activation in cells; conditions: similar cell-based assay; read-out: IC50, blocking Hedgehog pathway activation in cells; cited from earlier work
Structure (SMILES),pIC50 [1],mRNA level for the transcription factor Gli2 ([2]; ShhN-stimulated cells),reduction of the mRNA levels of Gi and Ptch1 ([2]; relative to compound-untreated ShhN-stimulated cells),"cytotoxicity (cell morphology, growth behavior and titer) (NIH-3T3 cells)",Hedgehog analog selectivity profile [3],inhibition at 10 µM (GST-Shh),affinity toward Ihh relative to Shh (GST-Ihh),affinity toward Dhh relative to Shh (GST-Dhh),pIC50 [4]
CSCC[C@@H]1NC(=O)[C@H](C)NC(=O)[C@H](CCC(=O)O)NC(=O)[C@@H](NC(=O)[C@H](Cc2c[nH]c3ccccc23)NC(=O)[C@H](CO)NC(=O)[C@H](CC(C)C)NC(=O)[C@@H](NC(C)=O)[C@@H](C)O)Cc2ccc(cc2)OCCSC[C@@H](C(=O)N[C@H](C(=O)N[C@@H](CC(=O)O)C(N)=O)[C@@H](C)O)NC(=O)[C@H](CCSC)NC(=O)[C@H](CC(=O)O)NC1=O [HL2-m5] (Ac-TLSWYEAMDMCTD-NH2; linker 5-11 via CH2CH2),6.60,suppresses,75-85%,lack of cytotoxicity,nearly identical activity toward Shh and Ihh,,,,
O=C(C[C@@H]1C/C=C/CCC(=O)O[C@H](c2ccccc2)CNC1=O)NCc1ccc(Cl)cc1 [robotnikinin],,,,,,34%,significantly lower affinity,significantly lower affinity,~4.82
